Experimental data as given in patent US9902703B2, “Somatostatin modulators and uses thereof” (Crinetics Pharmaceuticals, Inc., priority 2015, dated 2018).

Each molecule was assayed against T1, human somatostatin receptor subtype 2 (Homo sapiens, UniProt P30874) (assay: cAMP assay (functional assay for SSTR2 agonists)). Conditions: CHO cells expressing human SSTR2; intracellular cAMP with forskolin, HTRF; read-out: SSTR2a EC50.
T1 construct: expressed in transfected cells; host or cells: CHO (Chinese hamster ovary) cells, G-418 selected
T1 sequence (P30874 whole entry): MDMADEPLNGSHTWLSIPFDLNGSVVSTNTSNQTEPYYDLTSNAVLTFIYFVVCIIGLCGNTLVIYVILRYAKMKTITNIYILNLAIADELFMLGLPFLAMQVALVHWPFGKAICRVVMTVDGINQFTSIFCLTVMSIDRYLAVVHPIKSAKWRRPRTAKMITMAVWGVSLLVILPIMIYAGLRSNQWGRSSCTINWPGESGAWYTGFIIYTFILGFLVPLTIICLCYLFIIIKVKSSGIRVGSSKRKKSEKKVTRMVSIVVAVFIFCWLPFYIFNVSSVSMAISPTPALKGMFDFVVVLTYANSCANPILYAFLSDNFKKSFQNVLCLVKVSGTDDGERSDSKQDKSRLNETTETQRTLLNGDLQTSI
Type: cell-based
Description: Functional Assay for SSTR2 Agonists
General overview: All five SSTR subtypes are Gi coupled G-protein coupled receptors (GPCRs) that lead to decreases in intracellular cyclic AMP (cAMP) when activated by an agonist. Therefore, measurement of intracellular cAMP levels can be used to assess whether compounds of the invention are agonists of SSTR subtypes (John Kelly, Troy Stevens, W. Joseph Thompson, and Roland Seifert, Current Protocols in Pharmacology, 2005, 2.2.1-2.2). One example of an intracellular cAMP assay is described below.
One day prior to the assay, 40,000 Chinese hamster ovary (CHO) cells expressing the human somatostatin receptor subtype 2 are plated in each well of a 96-well tissue culture plate in DM-MEM growth media (Gibco) with the following additives: 10% fetal bovine serum (Gibco), 100 U/mL penicillin (Gibco), 100 ug/mL streptomycin (Gibco), 10 mM HEPES (Gibco), 1.2 mM sodium hydroxide, 0.5 mg/mL G-418 (Gibco)). The cells are cultured overnight at 37° C., 5% CO2 and 95% humidity. On the day of the assay, the media is aspirated and the cells are washed with 1× Dulbecco's phosphate buffered saline (Gibco). Next, 5 μL of assay buffer (1× Earle's Balanced Salt Solution (Gibco), 5 mM MgCl2, 10 mM HEPES, 0.1% bovine serum albumin, 0.2 mM 3-Isobutyl-1-methylxanthine (IBMX, Biomol Research Labs)) and forskolin is added. Various dilutions of the compounds of the invention are prepared in assay buffer and 5 μL of the dilutions are added to the cultured cells and incubated for 15 minutes at 37° C. […] 10 μL of lysis buffer (HRTF cAMP kit, Cisbio) containing cAMP detection and visualization antibodies are added and the assay is allowed incubate for 1-24 hours at room temperature. The intracellular cAMP concentrations are then measured using a commercially available detection kit (for example, the cAMP HTRF kit, Cisbio). The measured intracellular cAMP concentrations are plotted vs. the concentration of the compounds of the invention and the EC50 of the compounds are calculated using standard methods.

Cc1cc(Cl)cc(N2C=Nc3cc(C)c(-c4cccc(S(C)(=O)=O)c4)cc3C2C(=O)N(C)C[C@@H]2CCCN2)c1 (stereo partly drawn) [Compound 1-46, 3-(3-chloro-5-methylphenyl)-6-(3-methanesulfonylphenyl)-N,7-dimethyl-N-[(2S)-pyrrolidin-2-ylmethyl]-3,4-dihydroquinazoline-4-carboxamide] and Cc1cc(Cl)cc(N2C=Nc3cc(C)c(-c4cccc(NS(C)(=O)=O)c4)cc3C2C(=O)N(C)C[C@@H]2CCCN2)c1 (stereo partly drawn) [Compound 2-6, 3-(3-chloro-5-methylphenyl)-6-(3-methanesulfonamidophenyl)-N,7-dimethyl-N-[(2S)-pyrrolidin-2-ylmethyl]-3,4-dihydroquinazoline-4-carboxamide] fall in the same range of EC50: 0.1 to 1 µM for the first, 0.1 to 1 µM for the second.

Compared with Cc1cc(Cl)cc(N2C=Nc3cc(C)c(-c4cccc(-c5nnn[nH]5)c4)cc3C2C(=O)N(C)C[C@@H]2CCCN2)c1 (stereo partly drawn) [Compound 1-47, 3-(3-chloro-5-methylphenyl)-N,7-dimethyl-N-[(2S)-pyrrolidin-2-ylmethyl]-6-[3-(1H-1,2,3,4-tetrazol-5-yl)phenyl]-3,4-dihydroquinazoline-4-carboxamide], Cc1cc(Cl)cc(N2C=Nc3cc(C)c(-c4cccnc4)cc3C2C(=O)N(C)C[C@@H]2CCCN2)c1 (stereo partly drawn) [Compound 2-2, 3-(3-chloro-5-methylphenyl)-N,7-dimethyl-6-(pyridin-3-yl)-N-[(2S)-pyrrolidin-2-ylmethyl]-3,4-dihydroquinazoline-4-carboxamide] is higher in EC50: less than 0.1 µM for the first, 0.1 to 1 µM for the second. The first is the more potent here.

Cc1cc(Cl)cc(N2C=Nc3cc(C)c(-c4cc(O)cc(C#N)c4)cc3C2C(=O)N(C)C[C@@H]2CCCN2)c1 (stereo partly drawn) [Compound 1-48, 3-(3-chloro-5-methylphenyl)-6-(3-cyano-5-hydroxyphenyl)-N,7-dimethyl-N-[(2S)-pyrrolidin-2-ylmethyl]-3,4-dihydroquinazoline-4-carboxamide] and Cc1cc(F)cc(N2C=Nc3cc(C)c(-c4cc(O)cc(C#N)c4)cc3C2C(=O)N(C)C[C@@H]2CCCN2)c1 (stereo partly drawn) [Compound 1-54, 6-(3-cyano-5-hydroxyphenyl)-3-(3-fluoro-5-methylphenyl)-N,7-dimethyl-N-[(2S)-pyrrolidin-2-ylmethyl]-3,4-dihydroquinazoline-4-carboxamide] cannot be ordered by EC50: less than 0.1 µM for the first, less than 0.1 µM for the second.

Compared with CCOC(=O)Cc1cccc(-c2cc3c(cc2C)N=CN(c2cc(C)cc(Cl)c2)C3C(=O)N(C)C[C@@H]2CCCN2)c1 (stereo partly drawn) [Compound 1-49, ethyl 2-{3-[3-(3-chloro-5-methylphenyl)-7-methyl-4-{methyl[(2S)-pyrrolidin-2-ylmethyl]carbamoyl}-3,4-dihydroquinazolin-6-yl]phenyl}acetate], Cc1cc(Cl)cc(N2C=Nc3cc(C)c(-c4cccc(CC(=O)O)c4)cc3C2C(=O)N(C)C[C@@H]2CCCN2)c1 (stereo partly drawn) [Compound 1-53, 2-{3-[3-(3-chloro-5-methylphenyl)-7-methyl-4-{methyl[(2S)-pyrrolidin-2-ylmethyl]carbamoyl}-3,4-dihydroquinazolin-6-yl]phenyl}acetic acid] is lower in EC50: 0.1 to 1 µM for the first, less than 0.1 µM for the second. The second is the more potent here.

Cc1cc(Cl)cc(N2C=Nc3ccc(-c4cc(O)cc(F)c4)cc3C2C(=O)N(C)C[C@@H]2CCCN2)c1 (stereo partly drawn) [Compound 1-50, 3-(3-chloro-5-methylphenyl)-6-(3-fluoro-5-hydroxyphenyl)-N-methyl-N-[(2S)-pyrrolidin-2-ylmethyl]-3,4-dihydroquinazoline-4-carboxamide] and Cc1cc(Cl)cc(N2C=Nc3cc(Cl)c(-c4cccc(O)c4)cc3C2C(=O)N(C)C[C@@H]2CCCN2)c1 (stereo partly drawn) [Compound 1-72, 7-chloro-3-(3-chloro-5-methylphenyl)-6-(3-hydroxyphenyl)-N-methyl-N-((S)-pyrrolidin-2-ylmethyl)-3,4-dihydroquinazoline-4-carboxamide] cannot be ordered by EC50: less than 0.1 µM for the first, less than 0.1 µM for the second.

Compared with Cc1cc(C)cc(N2C=Nc3cc(C)c(-c4cccc(O)c4)cc3C2C(=O)NC[C@@H]2CCCN2)c1 (stereo partly drawn) [Compound 1-51, 3-(3,5-dimethylphenyl)-6-(3-hydroxyphenyl)-7-methyl-N-[(2S)-pyrrolidin-2-ylmethyl]-3,4-dihydroquinazoline-4-carboxamide], Cc1cc(Cl)cc(N2C=Nc3cc(C)c(-c4cccc(O)c4)cc3C2C(=O)N(C)C[C@@H]2C[C@@H](F)CN2)c1 (stereo partly drawn) [Compound 1-56, 3-(3-chloro-5-methylphenyl)-N-{[(2S,4R)-4-fluoropyrrolidin-2-yl]methyl}-6-(3-hydroxyphenyl)-N,7-dimethyl-3,4-dihydroquinazoline-4-carboxamide] is lower in EC50: 1 to 10 µM for the first, less than 0.1 µM for the second.

COc1cc(F)cc(N2C=Nc3cc(C)c(-c4cc(O)ccc4F)cc3C2C(=O)N(C)C[C@@H]2CCCN2C)c1 (stereo partly drawn) [Compound 1-52, 6-(2-fluoro-5-hydroxyphenyl)-3-(3-fluoro-5-methoxyphenyl)-N,7-dimethyl-N-{[(2S)-1-methylpyrrolidin-2-yl]methyl}-3,4-dihydroquinazoline-4-carboxamide] and COc1ccc(F)c(-c2cc3c(cc2C)N=CN(c2cc(C)cc(Cl)c2)C3C(=O)N(C)C[C@@H]2CCCN2)c1 (stereo partly drawn) [Compound 2-5, 3-(3-chloro-5-methylphenyl)-6-(2-fluoro-5-methoxyphenyl)-N,7-dimethyl-N-[(2S)-pyrrolidin-2-ylmethyl]-3,4-dihydroquinazoline-4-carboxamide] cannot be ordered by EC50: less than 0.1 µM for the first, less than 0.1 µM for the second.

Cc1cc(Cl)cc(N2C=Nc3cc(C)c(-c4cccc(O)c4)cc3C2C(=O)N(C)C[C@@H]2CC(F)(F)CN2)c1 (stereo partly drawn) [Compound 1-55, 3-(3-chloro-5-methylphenyl)-N-{[(2S)-4,4-difluoropyrrolidin-2-yl]methyl}-6-(3-hydroxyphenyl)-N,7-dimethyl-3,4-dihydroquinazoline-4-carboxamide] and Cc1cc(Cl)cc(N2C=Nc3cc(C)c(-c4cncc(O)c4)cc3C2C(=O)N(C)C[C@@H]2CCCN2)c1 (stereo partly drawn) [Compound 2-10, 3-(3-chloro-5-methylphenyl)-6-(5-hydroxypyridin-3-yl)-N,7-dimethyl-N-[(2S)-pyrrolidin-2-ylmethyl]-3,4-dihydroquinazoline-4-carboxamide] cannot be ordered by EC50: less than 0.1 µM for the first, less than 0.1 µM for the second.

First: Cc1cc(Cl)cc(N2C=Nc3cc(C)c(-c4cnn(C)c4)cc3C2C(=O)N(C)C[C@@H]2CCCN2)c1 (stereo partly drawn) [Compound 2-1, 3-(3-chloro-5-methylphenyl)-N,7-dimethyl-6-(1-methyl-1H-pyrazol-4-yl)-N-[(2S)-pyrrolidin-2-ylmethyl]-3,4-dihydroquinazoline-4-carboxamide]
Second: Cc1cc(Cl)cc(N2C=Nc3cc(C)c(-c4cccc(F)c4C)cc3C2C(=O)N(C)C[C@@H]2CCCN2)c1 (stereo partly drawn) [Compound 2-7, 3-(3-chloro-5-methylphenyl)-6-(3-fluoro-2-methylphenyl)-N,7-dimethyl-N-[(2S)-pyrrolidin-2-ylmethyl]-3,4-dihydroquinazoline-4-carboxamide]
The EC50 of the first is higher: 0.1 to 1 µM for the first, less than 0.1 µM for the second.

COc1ccc(Cl)c(-c2cc3c(cc2C)N=CN(c2cc(C)cc(Cl)c2)C3C(=O)N(C)C[C@@H]2CCCN2)c1 (stereo partly drawn) [Compound 2-3, 6-(2-chloro-5-methoxyphenyl)-3-(3-chloro-5-methylphenyl)-N,7-dimethyl-N-[(2S)-pyrrolidin-2-ylmethyl]-3,4-dihydroquinazoline-4-carboxamide] and COc1ccc(C)c(-c2cc3c(cc2C)N=CN(c2cc(C)cc(Cl)c2)C3C(=O)N(C)C[C@@H]2CCCN2)c1 (stereo partly drawn) [Compound 2-4, 3-(3-chloro-5-methylphenyl)-6-(5-methoxy-2-methylphenyl)-N,7-dimethyl-N-[(2S)-pyrrolidin-2-ylmethyl]-3,4-dihydroquinazoline-4-carboxamide] cannot be ordered by EC50: less than 0.1 µM for the first, less than 0.1 µM for the second.

Cc1cc(Cl)cc(N2C=Nc3cc(C)c(-c4ccc(F)cc4C)cc3C2C(=O)N(C)C[C@@H]2CCCN2)c1 (stereo partly drawn) [Compound 2-8, 3-(3-chloro-5-methylphenyl)-6-(4-fluoro-2-methylphenyl)-N,7-dimethyl-N-[(2S)-pyrrolidin-2-ylmethyl]-3,4-dihydroquinazoline-4-carboxamide] and Cc1cc(Cl)cc(N2C=Nc3cc(C)c(-c4c(C)cccc4F)cc3C2C(=O)N(C)C[C@@H]2CCCN2)c1 (stereo partly drawn) [Compound 2-12, 3-(3-chloro-5-methylphenyl)-6-(2-fluoro-6-methylphenyl)-N,7-dimethyl-N-[(2S)-pyrrolidin-2-ylmethyl]-3,4-dihydroquinazoline-4-carboxamide] cannot be ordered by EC50: less than 0.1 µM for the first, less than 0.1 µM for the second.

Cc1cc(Cl)cc(N2C=Nc3cc(C)c(-c4cc(F)cc(C(N)=O)c4)cc3C2C(=O)N(C)C[C@@H]2CCCN2)c1 (stereo partly drawn) [Compound 2-9, 6-(3-carbamoyl-5-fluorophenyl)-3-(3-chloro-5-methylphenyl)-N,7-dimethyl-N-[(2S)-pyrrolidin-2-ylmethyl]-3,4-dihydroquinazoline-4-carboxamide] and Cc1cc(Cl)cc(N2C=Nc3cc(C)c(-c4cccc(C(N)=O)n4)cc3C2C(=O)N(C)C[C@@H]2CCCN2)c1 (stereo partly drawn) [Compound 2-11, 6-(6-carbamoylpyridin-2-yl)-3-(3-chloro-5-methylphenyl)-N,7-dimethyl-N-[(2S)-pyrrolidin-2-ylmethyl]-3,4-dihydroquinazoline-4-carboxamide] cannot be ordered by EC50: less than 0.1 µM for the first, less than 0.1 µM for the second.
